“Also recorded” adds a separate entry of the source.
Tested on: C. albicans
Test: Antifungal activity in 3D culture model (C. albicans 3D fungal biofilms in CHROMagar)
Type: cell-based
Conditions: for superficial regrowth of preformed fungal biofilm: t=48 h preformed biofilm, monitored for 48 hr
Protocol: Antifungal activity. The antifungal activity was performed using an in-lab developed 3D culture model. C. Albicans was seeded at a density of 10^7 cells/mL and cultured for 48 h on CHROMagar. The 3D culture gels were treated with PBS and Caspofungin either topically or using the in-situ microneedle device and methodology. Samples were cut for in-depth imaging after 48 h of treatment and fungal inhibition was evaluated. Experiments were performed to assess the feasibility of the disclosed device in the treatment of infection. 10^6 cells/ml of C. albicans were inoculated in liquid CHROMagar™ and allowed to form 3D fungal biofilms. PBS or 32 μg/ml of Caspofungin (CPF) was applied topically and via a microneedling device immediately after the agar solidified (t=0 h) or 48 h after biofilm growth (t=48 h). The growth and distribution of C. albicans was monitored for 48 hr.

SMILES: CC[C@H](C)C[C@H](C)CCCCCCCCC(=O)N[C@H]1C[C@@H](O)[C@@H](NCCN)NC(=O)[C@@H]2[C@@H](O)CCN2C(=O)[C@H]([C@H](O)CCN)NC(=O)[C@H]([C@H](O)[C@@H](O)c2ccc(O)cc2)NC(=O)[C@@H]2C[C@@H](O)CN2C(=O)[C@H]([C@@H](C)O)NC1=O [CPF, Caspofungin]
- 3D growth of fungal biofilm (fluorescence images of slices) (32 μg/ml CPF administered by drop): reduced the 3D growth
- 3D growth of fungal biofilm (fluorescence images of slices) (32 μg/ml CPF administered by microneedle system): reduced the 3D growth
- superficial regrowth of preformed fungal biofilm (32 μg/ml CPF applied topically via drop): not able to regrow on the surface; also recorded: prevention of superficial growth
- superficial regrowth of preformed fungal biofilm (32 μg/ml CPF applied via microneedle system): not able to regrow on the surface; also recorded: prevention of superficial growth
- fungal biofilm 3D growth at t=48 h (32 μg/ml CPF, microneedling system vs drop, applied 48 h after biofilm growth): effective in reducing the fungal biofilm growth only when administered via the microneedling system; also recorded: reduced only when CPF was administered via microneedles
- overall biofilm thickness and biofilm growth at depth (calcofluor fluorescence signal) (CPF, microneedle delivery): reduces the overall biofilm thickness and biofilm growth at depths lower than 1 mm
